From patent publication US8410130B2, “Synthesis of 8H-3A-aza-cyclopenta [A ]indenes and 5,10-dihydropyrrolo[1,2-B]isoquinolines derivatives and their use as antitumor therapeutic agents” (Academia Sinica, priority 2007, dated 2013)
Read-outs that look alike come from different tables or passages of the source.

Tests used:
[1] = tested on: CCRF-CEM human lymphoblastic leukemia cells; assay: In vitro cytotoxicity, XTT assay, 72-hr incubation; assay type: cell-based
Source text: (§1) Human colon carcinoma HCT-116 cells, human prostate adenocarcinoma PC-3 and adenocarcinoma SK-OV-3 cells were obtained from American Type Culture Collection (ATCC, Rockville, Md.). Human mammary carcinoma (MX-1) tumor cells were obtained from MSKCC cell bank. The CCRF-CEM human lymphoblastic leukemia cells and their vinblastine resistant subline (CCRF-CEM/VBL, 680-fold resistance in vitro) were obtained from Dr. William Beck of the University of Illinois, Chicago, and CCRF-CEM/Taxol (330-fold resistance in vitro). Resistant cells CCRF-CEM/taxol were produced by exposing the parent cells to increasing sublethal concentration (IC50-IC90) of paclitaxel for six months.
(§2) In preparation for in vitro cytotoxicity assays, cells were cultured at an initial density 2-5×10^4 cells per milliliter. They were maintained in a 5% CO2-humidified atmosphere at 37° C. in RPMI medium 1640 (GIBCO/BRL) containing penicillin (100 units/mL), streptomycin (100 μg/mL, GIBCO/BRL), and 5% heat-inactivated FBS. For cells grown in suspension (such as CCRF-CEM and its sublines), cytotoxicity was measured, by using XTT microculture method in 96-well microtiter plates (Scudiero D A et al., Cancer Res. 1988, 48, 4827-4833). For solid tumor cells growing in a monolayer (such as MX-1 and HCT-116), cytotoxicity of the drug was determined, in duplicate, in 96-well microtiter plates by using the sulforhodamine B method (Skehan P et al., J. Natl. Cancer Inst 1990, 82, 1107-1112). For both methods, the absorbance of each well was measured with a microplate reader (Power Wave XS, Bio-Tek, Winooski, Vt.) after 72-hr incubation as described previously (Chou T-C et al., Proc. Natl. Acad. Sci. USA 2001, 98, 8113-8118). Dose-effect relationship data from 6 to 7 concentrations of each drug, in duplicate, were analyzed by using a computer program (Chou T-C et al., ComboSyn, Inc., Paramus, N J. 2005) based on the median-effect principle and plot (Chou T-C et al., Adv. Enzyme Regul. 1984, 22, 27-55; Chou T-C, Pharmacol. Rev. 2006, 58, 621-681).
(§3) The IC50 is defined by the concentration required to inhibit tumor cell growth by 50%. […] The growth inhibition of the compounds disclosed herein against human lymphoblastic leukemic cells (CCRF-CEM) and its drug-resistant sublines (resistant to vinblastine and taxol, CCRF-CEM/VBL and CCRF-CEM/taxol, respectively) is also shown in Table 5. […] Thus, the compounds disclosed herein are effective against multiple drug resistant tumors.

[2] = tested on: CCRF-CEM/Taxol; assay: In vitro cytotoxicity, XTT assay, taxol resistant subline; assay type: cell-based, human; details: for IC50: XTT assay, 72-hr incubation; for fold of cross-resistant, CCRF-CEM/Taxol vs IC50 of the parent cell line: numbers in brackets
Source text: as §1, §2, §3

[3] = tested on: human mammary carcinoma MX-1 xenograft; assay: Therapeutic effect in nude mice bearing MX-1 xenograft; assay type: in vivo; details: intravenous injection
Procedure: FIGS. 2A-B illustrates the therapeutic effect of DA-1090, 1099, 1124, 1012 and 1107 in nude mice bearing human mammary carcinoma MX-1 xenograft (i.v. inj, n=3-4), average tumor size changes (FIG. 2A) and average body weight changes (FIG. 2B).
Athymic nude mice bearing the nu/nu gene were obtained from NCI, Frederick, Md. and used for all human tumor xenografts. Male nude mice, 6 weeks or older, weighing 20-24 g or more were used. Compounds were administered via the tail vein for i.v. injection or infusion as described previously (Chou T-C et al., Proc. Natl. Acad. Sci. USA 2001, 98, 8113-8118). Various formulations were prepared for injections into the mice for chemotherapeutic studies. As an example, a drug was dissolved in DSMO to make a 25 mg/ml fresh solution, 0.4 ml of this solution was mixed with 0.3 ml of Tween 80, plus 1.3 ml to make 2 ml of 5 mg/ml solution. Bolus injection volume was 0.1-0.2 ml per mouse.
Athymic nude mice bearing the nu/nu gene were used for human breast tumor MX-1 xenograft (FIGS. 2, 2A and 2B). Nude mice were obtained from National Cancer Institute, Frederick, Md. Male mice, 6 weeks old or older, weighing 22 g or more were used for experiments with subcutaneous tumor inoculation as described previously (Chou T-C, Pharmacol. Rev. 2006, 58, 621-681). Drug was administrated via the tail vein by iv injection. Tumor volumes were assessed by measuring length×width×height (or width) by using caliper. An example of vehicle used was 20 μL DMSO in 180 μL saline. All animal studies were conducted in accordance with the guidelines of the U.S. National Institutes of Health Guide for the Care and Use of Animals and the protocol approved by the Institutional Animal Care and Use Committee.

[4] = tested on: CCRF-CEM/VBL; assay: In vitro cytotoxicity, XTT assay, vinblastine resistant subline; assay type: cell-based, human; details: for IC50: XTT assay, 72-hr incubation; for fold of cross-resistant, CCRF-CEM/VBL vs IC50 of the parent cell line: numbers in brackets
Source text: as §1, §2, §3

[5] = tested on: Human mammary carcinoma (MX-1) tumor cells; assay: In vitro cytotoxicity, sulforhodamine B (SRB) assay; assay type: cell-based; details: 72-hr incubation
Source text: as §1, §2, §3

[6] = tested on: Human colon carcinoma HCT-116 cells; assay: as above; assay type: cell-based
Source text: as §1, §2, §3

[7] = Homo sapiens, HCT-116, 72-hr incubation
[8] = 15 mg/kg, every other two days (Q2D), two times

SMILES | IC50 ([1]; Homo sapiens, CCRF-CEM) [nM] | IC50 ([2]; Homo sapiens, CCRF-CEM) [nM] | fold of cross-resistant, CCRF-CEM/Taxol vs IC50 of the parent cell line [2] | antitumor therapeutic effect (tumor size) ([3]; 5 mg/kg, daily (QD) 3 times) | toxicity ([3]; 5 mg/kg, daily (QD) 3 times) | IC50 ([4]; Homo sapiens, CCRF-CEM) [nM] | fold of cross-resistant, CCRF-CEM/VBL vs IC50 of the parent cell line [4] | IC50 ([5]; Homo sapiens) [nM] | IC50 [6, 7] [nM] | antitumor therapeutic effect (tumor size) [3, 8] | toxicity [3, 8] | IC50 [1] [nM] | IC50 [2] [nM] | IC50 [4] [nM] | IC50 [5] [nM] | IC50 ([6]; 72-hr incubation) [nM]
CNC(=O)OCc1c(COC(=O)NC)c(-c2ccc(OC)cc2)n2c1Cc1ccccc1-2 [DA-1012, Methylcarbamic acid 3-(4-methoxy-phenyl)-2-methylcarbamoyloxymethyl-8H-3a-azacyclopenta[a]inden-1-ylmethyl ester] | 49 | 58 | [1.2x] | tumor total disappearance | low toxicity | 70 | [1.4x] | 1940 | 2740 |  |  |  |  |  |  | 
CNC(=O)OCc1c(COC(=O)NC)c(-c2ccccc2OC)n2c1Cc1ccccc1-2 [DA-1124, Methylcarbamic acid 3-(2-methoxyphenyl)-2-methylcarbamoyloxymethyl-8H-3a-aza-cyclopenta[a]inden-1-ylmethyl ester] | 136 | 360 | [2.65x] |  |  | 243 | [1.79x] | 1330 | 151 | tumor total disappearance | low toxicity |  |  |  |  | 
COc1ccc(-c2c(CO)c(CO)c3n2Cc2ccccc2C3)cc1 [DA-1106, [2-Hydroxymethyl-3-(4-methoxyphenyl)-5,10-dihydropyrrolo[1,2-b]isoquinolin-1-yl]methanol] | 228 | 232 | [1.02x] |  |  | 111 | [0.49x] | 1940 | 1030 |  |  |  |  |  |  | 
CC[C@]1(O)C[C@@H]2CN(CCc3c([nH]c4ccccc34)[C@@](C(=O)OC)(c3cc4c(cc3OC)N(C)[C@H]3[C@@](O)(C(=O)OC)[C@H](OC(C)=O)[C@]5(CC)C=CCN6CC[C@]43[C@@H]65)C2)C1 [Vinblastine, reference compound] | 0.73 | 496 | [679.5x] |  |  | 78 |  | 2.9 | 1.8 |  |  |  |  |  |  | 
CNC(=O)OCc1c(COC(=O)NC)c(-c2ccc(F)c(F)c2)n2c1Cc1ccccc1-2 [DA-1027, Methylcarbamic acid 3-(3,4-diflourophenyl)-2-methylcarbamoyloxymethyl-8H-3a-aza-cyclopenta[a]inden-1-ylmethyl ester] |  |  | [1.0x] |  |  |  | [0.99x] |  |  |  |  | 639 | 644 | 632 | 7840 | 878
COc1cc(-c2c(CO)c(CO)c3n2-c2ccccc2C3)cc(OC)c1OC [DA-1128, (2-Hydroxymethyl-3-(3,4,5-trimethoxyphenyl)-8H-3a-aza-cyclopenta[a]inden-1-yl)-methanol] | 2050 | 1040 | [0.50x] |  |  | 1140 | [0.56x] | 17600 | 30600 |  |  |  |  |  |  | 
CC(=O)O[C@H]1C(=O)[C@@]2(C)[C@H]([C@H](OC(=O)c3ccccc3)[C@]3(O)C[C@H](OC(=O)[C@H](O)[C@@H](NC(=O)c4ccccc4)c4ccccc4)C(C)=C1C3(C)C)[C@]1(OC(C)=O)CO[C@@H]1C[C@@H]2O [Taxol, reference compound] | 1.3 | 1270 |  |  |  | 429 | [330x] | 35 | 1.3 |  |  |  |  |  |  | 
COc1ccccc1-c1c(CO)c(CO)c2n1-c1ccccc1C2 [DA-1123, (2-Hydroxymethyl-3-(2-methoxyphenyl)-8H-3a-aza-cyclopenta[a]inden-1-yl)methanol] | 1010 | 2680 | [2.68x] |  |  | 1900 | [1.89x] | 8640 | 13400 |  |  |  |  |  |  | 
CNC(=O)OCc1c(COC(=O)NC)c(-c2ccc(F)c(F)c2)n2c1Cc1ccccc1C2 [DA-1113, methylcarbamic acid 3-(3,4-difluorophenyl)-2-methylcarbamoyloxymethyl-5,10-dihydropyrrolo[1,2-b]isoquinolin-1-methyl ester] |  |  | [1.32x] |  |  |  | [1.06x] |  |  |  |  | 488 | 643 | 519 | 2710 | 358
CNC(=O)OCc1c(COC(=O)NC)c(-c2ccc(OC)c(OC)c2)n2c1Cc1ccccc1-2 [DA-1125, Methylcarbamic acid 3-(3,4-dimethoxyphenyl)-2-methylcarbamoyloxymethyl-8H-3a-aza-cyclopenta[a]inden-1-ylmethyl ester] | 350 | 497 | [1.42x] |  |  | 374 | [1.07x] | 1840 | 680 |  |  |  |  |  |  | 
CNC(=O)OCc1c(COC(=O)NC)c2n(c1C)Cc1ccccc1C2 [DA-1108, methylcarbamic acid 3-methyl-1-methylcarbamoyloxymethyl-5,10-dihydro-pyrrolo[1,2-b]isoquinolin-2-ylmethyl ester] | 128 | 111 | [0.87x] |  |  | 76 | [0.59x] | 1680 | 1160 |  |  |  |  |  |  | 
CNC(=O)OCc1c(COC(=O)NC)c2n(c1C)-c1ccccc1C2 [DA-1100, methyl carbamic acid 3-methyl-2-methylcarbamoyloxymethyl-8H-3a-aza-cyclopenta[a]inden-1-yl methyl ester] | 188 | 67 | [0.36x] |  |  | 126 | [0.67x] | 355 | 297 |  |  |  |  |  |  | 
CNC(=O)OCc1c(COC(=O)NC)c(-c2c(OC)cccc2OC)n2c1Cc1ccccc1-2 [DA-1127, Methylcarbamic acid 3-(2,6-dimethoxyphenyl)-2-methylcarbamoyloxymethyl-8H-3a-aza-cyclopenta[a]inden-1-ylmethyl ester] | 640 | 616 | [0.96x] |  |  | 697 | [1.08x] | 5480 | 1110 |  |  |  |  |  |  | 
